Results taken from US9233940B2, “Cyclic peptidomimetic compounds as immunomodulators” (Aurigene Discovery Technologies Limited, priority 2014, dated 2016).

molecular target: T1, recombinant mouse PD-L1 (Mus musculus, UniProt Q9EP73); test: Rescue of mouse splenocyte proliferation in the presence of recombinant PD-L1 (CFSE proliferation assay); type: cell-based; conditions: 72 h, 100 nM compound; CFSE-labelled mouse splenocytes + anti-CD3/CD28 + PD-L1, 72 h; normalised to stimulated splenocytes as 100%; read-out: Percent rescue of splenocyte proliferation @ 100 nM compound concentration
T1 construct: purchased R&D Systems 1019-B7-100
T1 sequence (Q9EP73 with tags, fused parts or gaps limits assumed): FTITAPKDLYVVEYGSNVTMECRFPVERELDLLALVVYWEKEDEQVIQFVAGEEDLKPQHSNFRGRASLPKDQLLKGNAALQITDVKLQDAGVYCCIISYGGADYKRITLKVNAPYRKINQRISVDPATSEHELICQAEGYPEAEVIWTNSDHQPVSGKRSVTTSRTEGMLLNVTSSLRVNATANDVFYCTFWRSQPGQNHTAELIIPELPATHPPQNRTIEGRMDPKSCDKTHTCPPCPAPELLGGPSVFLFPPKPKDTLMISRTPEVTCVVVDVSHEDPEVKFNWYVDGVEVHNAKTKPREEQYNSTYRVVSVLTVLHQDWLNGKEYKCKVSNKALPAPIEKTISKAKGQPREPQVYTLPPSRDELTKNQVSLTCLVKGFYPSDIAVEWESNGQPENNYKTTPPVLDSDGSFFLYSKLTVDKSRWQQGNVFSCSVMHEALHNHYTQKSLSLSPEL
Experimental: Rescue of Mouse Splenocyte Proliferation in the Presence of Recombinant PD-L1
Recombinant mouse PD-L1 (rm-PDL-1, cat no: 1019-B7-100; R&D Systems) were used as the source of PD-L1.
Mouse splenocytes harvested from 6-8 weeks old C57 BL6 mice; RPMI 1640 (GIBCO, Cat #11875); DMEM with high glucose (GIBCO, Cat # D6429); Fetal Bovine Serum [Hyclone, Cat # SH30071.03]; Penicillin (10000 unit/ml)-Streptomycin(10,000 μg/ml) Liquid (GIBCO, Cat #15140-122); MEM Sodium Pyruvate solution 100 mM (100×), Liquid (GIBCO, Cat #11360); Nonessential amino acid (GIBCO, Cat #11140); L-Glutamine (GIBCO, Cat #25030); Anti-CD3 antibody (eBiosciences-16-0032); Anti-CD28 antibody (eBiosciences-16-0281); ACK lysis buffer (1 mL) (GIBCO, Cat #-A10492); Histopaque (density-1.083 gm/mL) (SIGMA 10831); Trypan blue solution (SIGMA-T8154); 2 mL Norm Ject Luer Lock syringe—(Sigma 2014-12); 40 μm nylon cell strainer (BD FALCON 35230); Hemacytometer (Bright line-SIGMA Z359629); FACS Buffer (PBS/0.1% BSA): Phosphate Buffered Saline (PBS) pH 7.2 (HiMedia TS1006) with 0.1% Bovine Serum Albumin (BSA) (SIGMA A7050) and sodium azide (SIGMA 08591); 5 mM stock solution of CFSE: CFSE stock solution was prepared by diluting lyophilized CFSE with 180 μL of Dimethyl sulfoxide (DMSO C2H6SO, SIGMA-D-5879) and aliquoted in to tubes for further use. Working concentrations were titrated from 10 μm to 1 μm. (eBioscience-650850-85); 0.05% Trypsin and 0.02% EDTA (SIGMA 59417C); 96-well format ELISA plates (Corning CLS3390); BD FACS caliber (E6016); Recombinant mouse B7-H1/PDL1 Fc Chimera, (rm-PD-L1 cat no: 1019-B7-100).
Splenocytes harvested in a 50 mL falcon tube by mashing mouse spleen in a 40 μm cell strainer were further treated with 1 ml ACK lysis buffer for 5 mins at room temperature. After washing with 9 mL of RPMI complete media, cells were re-suspended in 3 ml of 1×PBS in a 15 mL tube. 3 mL of Histopaque was added carefully to the bottom of the tube without disturbing overlaying splenocyte suspension. After centrifuging at 800×g for 20 min. at room temperature, the opaque layer of splenocytes was collected carefully without disturbing/mixing the layers. Splenocytes were washed twice with cold 1×PBS followed by total cell counting using Trypan Blue exclusion method and used further for cell based assays.
Splenocytes were cultured in RPMI complete media (RPMI+10% fetal bovine serum+1 mM sodium pyruvate+10,000 units/mL penicillin and 10,000 μg/mL streptomycin) and maintained in a CO2 incubator with 5% CO2 at 37° C.
CFSE is a dye that passively diffuses into cells and binds to intracellular proteins. 1×10^6 cells/ml of harvested splenocytes were treated with 5 μm of CFSE in pre-warmed 1×PBS/0.1% BSA solution for 10 mins at 37° C. Excess CFSE was quenched using 5 volumes of ice-cold culture media to the cells and incubated on ice for 5 min. CFSE labelled splenocytes were further given three washes with ice cold complete RPMI media. CFSE labelled 1×10^5 splenocytes added to wells containing either MDA-MB231 cells (1×10^5 cells cultured in high glucose DMEM medium) or recombinant human PDL-1 (100 ng/mL) and test compounds. Splenocytes were stimulated with anti-mouse CD3 and anti-mouse CD28 antibody (1 μg/mL each), and the culture was further incubated for 72 h at 37° C. with 5% CO2. Cells were harvested and washed thrice with ice cold FACS buffer and % proliferation was analysed by flow cytometry with 488 nm excitation and 521 nm emission filters.
Percent splenocyte proliferation was analysed using cell quest FACS program and percent rescue of splenocyte proliferation by compound was estimated after deduction of % background proliferation value and normalising to % stimulated splenocyte proliferation (positive control) as 100%.
Background proliferation: Splenocytes+anti-CD3/CD28+PD-L1
Stimulated splenocytes: Splenocytes+anti-CD3/CD28 stimulation
Compound proliferation: Splenocytes+anti-CD3/CD28+PD-L1+Compound […]

In order of rising activity at 0.1 µM:
1. CC(O)[C@H]1NC(=O)CCCCCCNC(=O)[C@@H](CO)NC(=O)N[C@H](CC(N)=O)C(=O)NNC1=O (stereo partly drawn) [Compound 4]  49%
2. CCC(C)[C@@H]1NC(=O)N[C@@H](CC(N)=O)C(=O)NNC(=O)[C@H](CO)NC(=O)COCCOCCNC1=O (stereo partly drawn) [Compound 5]  53%
3. CC(O)[C@H]1NC(=O)COCCOCCNC(=O)[C@@H](CO)NC(=O)N[C@H](CC(N)=O)C(=O)N(C)NC1=O (stereo partly drawn) [Compound 3]  58%
4. NC(=O)C[C@@H]1NC(=O)N[C@@H](CC(=O)O)C(=O)NCCOCCOCC(=O)N[C@@H](CO)C(=O)NNC1=O [Compound 8]  68%
5. NC(=O)C[C@@H]1NC(=O)N[C@H](CO)C(=O)NCCOCCOCC(=O)N[C@@H](CO)C(=O)NNC1=O [Compound 9]  73%
6. CC(O)[C@@H]1NC(=O)N[C@H](CC(N)=O)C(=O)NNC(=O)[C@@H](C(C)O)NC(=O)COCCOCCNC1=O (stereo partly drawn) [Compound 10]  89%
7. CC(O)[C@H]1NC(=O)COCCOCCNC(=O)[C@@H](CO)NC(=O)N[C@H](CC(N)=O)C(=O)NNC1=O (stereo partly drawn) [Compound 2]  94%
8. CC(O)[C@@H]1NC(=O)N[C@@H](CC(N)=O)C(=O)NNC(=O)[C@H](CO)NC(=O)COCCOCCNC1=O (stereo partly drawn) [Compound 1]  95%

same assay, conditions: CFSE-labelled mouse splenocytes + anti-CD3/CD28 + PD-L1, 72 h, normalised to stimulated splenocytes as 100%

For NC(=O)C[C@@H]1NC(=O)N[C@H](CO)C(=O)NCCOCCOCC(=O)N[C@@H](CO)C(=O)NNC1=O [Compound 12], the “Percent rescue of splenocyte proliferation @ 100 nM compound concentration” value was 91.
